Experimental findings from US10647713B2 (Nimbus Lakshmi, Inc., priority 2016, dated 2020) are described below.

Some results are limits rather than exact numbers.

Chain of human TYK2 (JH2domain-pseudokinase) (P29597 556-888): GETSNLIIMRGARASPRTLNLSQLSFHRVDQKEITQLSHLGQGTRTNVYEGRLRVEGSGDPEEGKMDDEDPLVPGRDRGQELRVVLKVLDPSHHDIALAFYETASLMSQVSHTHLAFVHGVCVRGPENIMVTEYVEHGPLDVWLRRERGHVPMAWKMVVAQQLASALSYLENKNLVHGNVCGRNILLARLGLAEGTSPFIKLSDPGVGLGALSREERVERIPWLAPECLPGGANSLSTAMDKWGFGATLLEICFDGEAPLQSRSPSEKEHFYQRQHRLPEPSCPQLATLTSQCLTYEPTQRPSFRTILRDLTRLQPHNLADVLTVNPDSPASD

The test addresses human TYK2 (JH2domain-pseudokinase) (Homo sapiens (Human), UniProt P29597). Put plainly: TYK2 JH2 Domain Binding Assay (KINOMEscan, DiscoveRx). Conditions: 11-point dilution, duplicate. In short, it runs like this: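 Kd from duplicate 11-point 3-fold dilutions starting at 30,000 nM, fitted by Hill equation with slope fixed at −1. Compounds (final 0.9% DMSO) displace DNA-tagged HEK293-expressed TYK2 JH2 fusion (<0.1 nM) from ligand-coated beads over 1 h at room temperature; eluted kinase read by qPCR.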
A word on the Kd: it is a measure of binding affinity in units of concentration. Turning to `Cc1cnc(-c2ccc(Nc3cc(Nc4cccc(C#N)n4)nc4[nH]c(C(F)F)nc34)c(S(C)(=O)=O)c2)s1` [I-513, 6-((2-(difluoromethyl)-7-((2-(methylsulfonyl)-4-(5-methylthiazol-2-yl)phenyl)amino)-3H-imidazo[4,5-b]pyridin-5-yl)amino)picolinonitrile], the Kd fell in the range of 0.5 to 1 nM.

As to `Cc1nc2c(Nc3ccc(-c4cc(C)n(C)n4)cc3S(C)(=O)=O)cc(Nc3cc4n(n3)CCOC4)nc2[nH]1` [I-514, N5-(6,7-dihydro-4H-pyrazolo[5,1-c][1,4]oxazin-2-yl)-N7-(4-(1,5-dimethyl-1H-pyrazol-3-yl)-2-(methylsulfonyl)phenyl)-2-methyl-3H-imidazo[4,5-b]pyridine-5,7-diamine], the Kd is less than 0.1 nM.

As for `CS(=O)(=O)c1cc([C@H]2CCCCO2)ccc1Nc1cc(Nc2cc3n(n2)CCOC3)nc2[nH]c(C(F)F)nc12` [I-515, (R)-2-(difluoromethyl)-N5-(6,7-dihydro-4H-pyrazolo[5,1-c][1,4]oxazin-2-yl)-N7-(2-(methylsulfonyl)-4-(tetrahydro-2H-pyran-2-yl)phenyl)-3H-imidazo[4,5-b]pyridine-5,7-diamine], the Kd was less than 0.1 nM.

The compound `CS(=O)(=O)c1cc([C@@H]2CCCCO2)ccc1Nc1cc(Nc2cc3n(n2)CCOC3)nc2[nH]c(C(F)F)nc12` [I-516, (S)-2-(difluoromethyl)-N5-(6,7-dihydro-4H-pyrazolo[5,1-c][1,4]oxazin-2-yl)-N7-(2-(methylsulfonyl)-4-(tetrahydro-2H-pyran-2-yl)phenyl)-3H-imidazo[4,5-b]pyridine-5,7-diamine] had a Kd of 0.1 to 0.5 nM.

`CS(=O)(=O)c1cc([C@H]2CCCCO2)ccc1Nc1cc(Nc2cccc(C(F)(F)F)n2)nc2[nH]c(C(F)F)nc12` [I-517, (R)-2-(difluoromethyl)-N7-(2-(methylsulfonyl)-4-(tetrahydro-2H-pyran-2-yl)phenyl)-N5-(6-(trifluoromethyl)pyridin-2-yl)-3H-imidazo[4,5-b]pyridine-5,7-diamine] displayed a Kd of 0.5 to 1 nM.

`CS(=O)(=O)c1cc([C@@H]2CCCCO2)ccc1Nc1cc(Nc2cccc(C(F)(F)F)n2)nc2[nH]c(C(F)F)nc12` [I-518, (S)-2-(difluoromethyl)-N7-(2-(methylsulfonyl)-4-(tetrahydro-2H-pyran-2-yl)phenyl)-N5-(6-(trifluoromethyl)pyridin-2-yl)-3H-imidazo[4,5-b]pyridine-5,7-diamine] came in with a Kd of 1 to 10 nM.

`Cc1cc(Nc2cc(Nc3ccc(-c4cc(C)n(C)n4)cc3S(C)(=O)=O)c3nc(C(F)F)[nH]c3n2)nc(C)n1` [I-519, 2-(difluoromethyl)-N7-(4-(1,5-dimethyl-1H-pyrazol-3-yl)-2-(methylsulfonyl)phenyl)-N5-(2,6-dimethylpyrimidin-4-yl)-3H-imidazo[4,5-b]pyridine-5,7-diamine]: the Kd is 0.1 to 0.5 nM.

As for `COCc1ccc(Nc2cc(Nc3ccccc3S(C)(=O)=O)c3nc(C(F)F)[nH]c3n2)nn1` [I-520], the Kd is 0.1 to 0.5 nM.

`COCc1ccc(Nc2cc(Nc3ccccc3S(C)(=O)=O)c3nc(C)[nH]c3n2)nn1` [I-521] gave a Kd of less than 0.1 nM.

Regarding `CS(=O)(=O)c1cc(-c2ccn(C3CCOCC3)n2)ccc1Nc1cc(NC(=O)C2CC2)nc2[nH]c(C(F)F)nc12` [I-522], the Kd was in the range of 0.1 to 0.5 nM.

Turning to `Cc1nc2c(Nc3ccc(-c4ccn(C5CCOCC5)n4)cc3S(C)(=O)=O)cc(NC(=O)C3CC3)nc2[nH]1` [I-523], the Kd is less than 0.1 nM.

In the case of `CCOc1ccc(Nc2cc(Nc3ccccc3S(C)(=O)=O)c3nc(C(F)F)[nH]c3n2)nc1C#N` [I-524], the Kd was in the range of 0.1 to 0.5 nM.

As for `CCOc1ccc(Nc2cc(Nc3ccccc3S(C)(=O)=O)c3nc(C)[nH]c3n2)nc1C#N` [I-525], the Kd is less than 0.1 nM.

`Cc1cc(-c2ccc(Nc3cc(Nc4cc5n(n4)CCOC5)nc4[nH]c(C(F)F)nc34)c(S(C)(=O)=O)c2)nn1C` [I-526] gave a Kd of less than 0.1 nM.

The compound `Cc1cc(Nc2cc(Nc3ccc(-c4ccn(C5CC5)n4)cc3S(C)(=O)=O)c3nc(C(F)F)[nH]c3n2)nc(C)n1` [I-527] showed a Kd of 0.1 to 0.5 nM.

In turn, `Cc1cc(Nc2cc(Nc3ccc(-c4ccn(C5CC5)n4)cc3S(C)(=O)=O)c3nc(C)[nH]c3n2)nc(C)n1` [I-528] gave a Kd of 0.1 to 0.5 nM.

Regarding `Cc1cc(Nc2cc(Nc3ccc([C@H]4CCCCO4)cc3S(C)(=O)=O)c3nc(C)[nH]c3n2)nc(C)n1` [I-529], the Kd is less than 0.1 nM.

Compound `Cc1cc(Nc2cc(Nc3ccc([C@@H]4CCCCO4)cc3S(C)(=O)=O)c3nc(C)[nH]c3n2)nc(C)n1` [I-530] returned a Kd of less than 0.1 nM.

`CS(=O)(=O)c1ccccc1Nc1cc(Nc2ccc3c(n2)CCOC3)nc2[nH]c(C(F)F)nc12` [I-531] gave a Kd of less than 0.1 nM.

As to `Cc1nc2c(Nc3ccccc3S(C)(=O)=O)cc(Nc3ccc4c(n3)CCOC4)nc2[nH]1` [I-532], the Kd is less than 0.1 nM.

As for `Cc1c(-c2ccc(Nc3cc(Nc4ccc(C(C)C)c(C#N)n4)nc4[nH]c(C(F)F)nc34)c(S(C)(=O)=O)c2)cnn1C` [I-533], the Kd was 0.1 to 0.5 nM.

In the case of `Cc1cc(C)c(-c2ccc(Nc3cc(NC(=O)C4CC4)nc4[nH]c(C(F)F)nc34)c(S(C)(=O)=O)c2)o1` [I-534], the Kd lay within 1 to 10 nM.

`Cc1nc2c(Nc3ccc(C4CCC(C)(C)CO4)cc3S(C)(=O)=O)cc(NC(=O)C3CC3)nc2[nH]1` (stereo not shown) [I-536, N-(7-((4-(5,5-dimethyltetrahydro-2H-pyran-2-yl)-2-(methylsulfonyl)phenyl)amino)-2-methyl-3H-imidazo[4,5-b]pyridin-5-yl)cyclopropanecarboxamide] displayed a Kd of less than 0.1 nM.

The compound `Cc1c(-c2ccc(Nc3cc(NC(=O)C4CC4)nc4[nH]c(C(F)F)nc34)c(S(C)(=O)=O)c2)cnn1C1CC1` [I-537, N-(7-((4-(1-cyclopropyl-5-methyl-1H-pyrazol-4-yl)-2-(methylsulfonyl)phenyl)amino)-2-(difluoromethyl)-3H-imidazo[4,5-b]pyridin-5-yl)cyclopropanecarboxamide] registered a Kd of less than 0.1 nM.

Turning to `COc1c(Nc2cc(Nc3cccc(C#N)n3)nc3[nH]c(C(F)F)nc23)cccc1-c1ncnn1C` [I-538], the Kd is 0.5 to 1 nM.

`COc1c(Nc2cc(Nc3cccc(C#N)n3)nc3[nH]c(C)nc23)cccc1-c1ncnn1C` [I-539, 6-((7-((2-methoxy-3-(1-methyl-1H-1,2,4-triazol-5-yl)phenyl)amino)-2-methyl-3H-imidazo[4,5-b]pyridin-5-yl)amino)picolinonitrile] displayed a Kd of 0.5 to 1 nM.

As to `COc1c(Nc2cc(Nc3cccc(C#N)n3)nc3[nH]c(C)nc23)cccc1-c1cnn(C)n1` [I-540, 6-((7-((2-methoxy-3-(2-methyl-2H-1,2,3-triazol-4-yl)phenyl)amino)-2-methyl-3H-imidazo[4,5-b]pyridin-5-yl)amino)picolinonitrile], the Kd lay within 0.1 to 0.5 nM.

The compound `COc1c(Nc2cc(Nc3cccc(C#N)n3)nc3[nH]c(C(F)F)nc23)cccc1-c1nc(C)nn1C` [I-541, 6-((2-(difluoromethyl)-7-((3-(1,3-dimethyl-1H-1,2,4-triazol-5-yl)-2-methoxyphenyl)amino)-3H-imidazo[4,5-b]pyridin-5-yl)amino)picolinonitrile] returned a Kd of 0.5 to 1 nM.

Regarding `COc1c(Nc2cc(Nc3cccc(C#N)n3)nc3[nH]c(C)nc23)cccc1-c1nc(C)nn1C` [I-542, 6-((7-((3-(1,3-dimethyl-1H-1,2,4-triazol-5-yl)-2-methoxyphenyl)amino)-2-methyl-3H-imidazo[4,5-b]pyridin-5-yl)amino)picolinonitrile], the Kd lay within 0.5 to 1 nM.

The compound `COc1c(Nc2cc(Nc3cccc(C#N)n3)nc3[nH]c(C)nc23)cccc1-c1nc(C)cs1` [I-543, 6-((7-((2-methoxy-3-(4-methylthiazol-2-yl)phenyl)amino)-2-methyl-3H-imidazo[4,5-b]pyridin-5-yl)amino)picolinonitrile] yielded a Kd of 1 to 10 nM.

Compound `Cc1nc2c(Nc3ccc(C4CCCO4)cc3S(C)(=O)=O)cc(Nc3cccc(C#N)n3)nc2[nH]1` (stereo not shown) [I-544, 6-((2-methyl-7-((2-(methylsulfonyl)-4-(tetrahydrofuran-2-yl)phenyl)amino)-3H-imidazo[4,5-b]pyridin-5-yl)amino)picolinonitrile] yielded a Kd of 0.1 to 0.5 nM.

Turning to `Cc1nc(-c2ccc(Nc3cc(NC(=O)C4CC4)nc4[nH]c(C(F)F)nc34)c(S(C)(=O)=O)c2)cs1` [I-545, N-(2-(difluoromethyl)-7-((2-(methylsulfonyl)-4-(2-methylthiazol-4-yl)phenyl)amino)-3H-imidazo[4,5-b]pyridin-5-yl)cyclopropanecarboxamide], the Kd was 0.1 to 0.5 nM.

Take `C#Cc1cccc(Nc2cc(Nc3ccccc3S(C)(=O)=O)c3nc(C(F)F)[nH]c3n2)n1` [I-546, 2-(difluoromethyl)-N5-(6-ethynylpyridin-2-yl)-N7-(2-(methylsulfonyl)phenyl)-3H-imidazo[4,5-b]pyridine-5,7-diamine]: the Kd was in the range of 1 to 10 nM.

Take `C#Cc1cccc(Nc2cc(Nc3ccccc3S(C)(=O)=O)c3nc(C)[nH]c3n2)n1` [I-547, N5-(6-ethynylpyridin-2-yl)-2-methyl-N7-(2-(methylsulfonyl)phenyl)-3H-imidazo[4,5-b]pyridine-5,7-diamine]: the Kd was less than 0.1 nM.

The compound `CN=[S@@](C)(=O)c1ccccc1Nc1cc(NC(=O)C2CC2)nc2[nH]c(C)nc12` [I-549, N-(7-((2-(N,S-dimethylsulfonimidoyl)phenyl)amino)-2-methyl-3H-imidazo[4,5-b]pyridin-5-yl)cyclopropanecarboxamide] came in with a Kd of 1 to 10 nM.

The compound `Cc1nc2c(Nc3ccc([C@@H]4CCC(C)(C)CO4)cc3S(C)(=O)=O)cc(NC(=O)C3CC3)nc2[nH]1` [I-550, (S)—N-(7-((4-(5,5-dimethyltetrahydro-2H-pyran-2-yl)-2-(methylsulfonyl)phenyl)amino)-2-methyl-3H-imidazo[4,5-b]pyridin-5-yl)cyclopropanecarboxamide] yielded a Kd of less than 0.1 nM.

Regarding `Cc1nc2c(Nc3ccc([C@H]4CCC(C)(C)CO4)cc3S(C)(=O)=O)cc(NC(=O)C3CC3)nc2[nH]1` [I-551, (R)—N-(7-((4-(5,5-dimethyltetrahydro-2H-pyran-2-yl)-2-(methylsulfonyl)phenyl)amino)-2-methyl-3H-imidazo[4,5-b]pyridin-5-yl)cyclopropanecarboxamide], the Kd lay within 0.5 to 1 nM.
